According to article PMC5039417, “Aberrant Glycosylation of Anchor-Optimized MUC1 Peptides Can Enhance Antigen Binding Affinity and Reverse Tolerance to Cytotoxic T Lymphocytes” (Biomolecules, 2016):

Tests used:
[1] = system: Autologous DCs pulsed with MUC1 peptides; assay: 51Cr-release assay against peptide-pulsed autologous DCs; format: cell-based, human; conditions: four normal donors, DCs pulsed with 50 μg/mL peptide and PADRE 10 μg/mL, E:T 100:1
Method: Autologous DCs pulsed with various MUC1 peptides (50 μg/mL) and PADRE peptide (10 μg/mL) were used as targets. Effector:target ratio was 100:1 and spontaneous release was less than 15% of complete lysis. * p < 0.05 (Student’s t-test) compared to the negative peptide.
The lytic activity of the in vitro stimulated peptide-specific CTLs was measured by a standard six-hour ^51Cr-release assay. The target cells used were MCF-7 breast cancer cell lines which express MUC1^+ and HLA-A*0201, and MDA-MB-231 cells, which are MUC1 negative and express HLA-A*0201. All tumor targets were treated with IFNγ one-day prior to use to up-regulate class I surface expression. Autologous DCs pulsed with the recall peptides, other modified peptides and the native peptide were also used as targets to evaluate cross-reactivity of MUC1-specific CTLs. The targets were labeled with Na^51CrO4 (0.1 mCi/mL) for 2 h, washed 3 times with PBS and re-suspended in T cell medium to a concentration of 2 × 10^4 cells/mL. […] After incubation, 30 μL of supernatant was transferred onto LUMA plates (Perkin Elmer, Waltham, MA, USA) and radioactive ^51Cr release was measured in a Topcount Micro-scintillation Counter (Packard Biosciences, Shelton, CT, USA). Percent specific lysis was calculated according to the following formula: Percent specific lysis = (experimental cpms − spontaneous cpms)/(complete cpms − spontaneous cpms) × 100. […]

[2] = system: MCF-7 cells (HLA-A*0201+, MUC1+); assay: 51Cr-release assay, peptide-induced CTLs from breast cancer patients; format: cell-based, human; conditions: all three breast cancer patient samples, E:T 100:1
Description: Figure 7 In vitro stimulation of T cells from HLA-A*0201^+ cancer patients (peri-menopausal) with anchor-optimized and/or glycosylated MUC1 peptides elicited strong CTL activity. (A) PBLs underwent two rounds of stimulation and sorted CD8^+ T cells were subjected to a ^51Cr-release assay. Targets were MCF-7 cells (HLA-A*0201^+, MUC1^+). Effector:target ratio was 100:1 and spontaneous release was less than 25% of complete lysis. The filled triangles designate normal individuals and the open triangles designate breast cancer patients. […] Following two rounds of stimulation, CD8^+ cells were maintained for 24 h on an ELISpot plate. Spot numbers were determined using computer assisted video image analysis by Zellnet Consulting Inc. (FortLee, NJ, USA). There was no evidence of a significance difference in spot numbers between cancer patients and healthy controls (Wilcoxon rank sum test; p > 0.05).
An optimized protocol for the generation of peptide-specific CTLs was developed that relied upon autologous DCs for stimulation. PBMCs (2 × 10^6 cells/mL of AIM V medium) were transferred to a 24-well plate and incubated for 2 h at 37 °C. Non-adherent lymphocytes were washed off with PBS and the adherent cells were cultured in X-VIVO medium containing GM-CSF (1000 U/mL) and IL-4 (1000 U/mL) to generate DCs. […] DCs were analyzed by flow cytometry for appropriate maturation markers. […] Five to seven days later, T cells were analyzed for cytolytic activity by ^51Cr-release assay and interferon gamma production by ELISPOT.
The lytic activity of the in vitro stimulated peptide-specific CTLs was measured by a standard six-hour ^51Cr-release assay. […] After incubation, 30 μL of supernatant was transferred onto LUMA plates (Perkin Elmer, Waltham, MA, USA) and radioactive ^51Cr release was measured in a Topcount Micro-scintillation Counter (Packard Biosciences, Shelton, CT, USA). […]

## SLAPT(Tn)VHNV [P4, glycosylated anchor-optimized MUC1 peptide]
[1]
  Lytic reactivity of CTLs against DCs pulsed with immunizing or native P1 peptide: reacted against the native P1:STAPPVHNV
[2]
  Lysis of MCF-7 cells by T cells from cancer samples: greater than 30%
